PMC6555645 (Angewandte Chemie (International ed. in English), 2019)

How the values were obtained:
Tar14 = target: T1, Tar14 (Saccharomonospora piscinae, UniProt W5VG40); assay: in vitro chlorination assay; type: biochemical; settings: with flavin and a flavin reductase system; chloride
T1 sequence (W5VG40 1-534): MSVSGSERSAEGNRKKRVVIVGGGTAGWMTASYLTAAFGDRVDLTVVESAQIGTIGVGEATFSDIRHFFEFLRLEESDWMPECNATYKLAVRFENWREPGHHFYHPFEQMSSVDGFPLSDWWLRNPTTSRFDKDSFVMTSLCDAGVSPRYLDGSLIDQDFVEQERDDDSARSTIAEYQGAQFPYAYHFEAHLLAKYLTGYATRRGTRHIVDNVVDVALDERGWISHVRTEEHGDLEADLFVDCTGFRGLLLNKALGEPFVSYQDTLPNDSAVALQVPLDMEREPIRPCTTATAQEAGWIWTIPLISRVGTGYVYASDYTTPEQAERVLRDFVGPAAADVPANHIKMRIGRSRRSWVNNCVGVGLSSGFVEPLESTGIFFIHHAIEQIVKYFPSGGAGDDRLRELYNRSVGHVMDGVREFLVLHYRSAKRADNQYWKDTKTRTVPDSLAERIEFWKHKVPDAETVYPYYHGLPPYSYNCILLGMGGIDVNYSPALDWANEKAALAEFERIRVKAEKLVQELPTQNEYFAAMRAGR

Tar13 = target: T2, Tar13 (Saccharomonospora piscinae, UniProt W5VMS0); assay: in vitro dioxygenase assay; type: biochemical; settings: heme-dependent TDO; O2
T2 sequence (W5VMS0 1-236): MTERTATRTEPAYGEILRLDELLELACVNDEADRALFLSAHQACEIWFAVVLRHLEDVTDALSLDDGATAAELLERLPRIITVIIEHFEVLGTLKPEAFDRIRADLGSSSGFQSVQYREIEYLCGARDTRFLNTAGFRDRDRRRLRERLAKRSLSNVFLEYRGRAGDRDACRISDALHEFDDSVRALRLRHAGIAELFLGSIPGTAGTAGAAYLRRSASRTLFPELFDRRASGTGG

| SMILES | Km (Tar14) [µM] | Km (Tar13) [µM] |
| --- | --- | --- |
| N[C@@H](Cc1c[nH]c2ccccc12)C(=O)O [compound 4, L-Trp] | 12 |  |
| N[C@@H](Cc1c[nH]c2cc(Cl)ccc12)C(=O)O [compound 7, L-6-Cl-Trp] |  | 112 |
